One experiment concerns the target activated ERK2 (Homo sapiens (Human), UniProt P28482). The experiment is described as follows: Activated ERK2 kinase assay, ERK2 New conditions (AlphaScreen, ERKtide phosphorylation). The experiment is classed as biochemical. To be noted: 0.25 nM ERK2, 200 nM ERKtide peptide, 35 μM ATP, 30 min preincubation. In a few lines:
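0.25 nM ERK2 preincubated 30 min with compound, then reacted 2–3 h at ambient temperature with 200 nM ERKtide and 35 µM ATP (final) in HEPES pH 7.5 buffer. EDTA stop; phospho-peptide detected by AlphaScreen after overnight incubation; IC50 from four-parameter fit.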

A further experiment addresses ERK2 (Homo sapiens (Human), UniProt P28482). Briefly: ERK2 Alphascreen. The experiment is classed as biochemical. For orientation: Alpha assays give light when donor and acceptor beads are brought close together.

Sequence of activated ERK2 (P28482 whole entry): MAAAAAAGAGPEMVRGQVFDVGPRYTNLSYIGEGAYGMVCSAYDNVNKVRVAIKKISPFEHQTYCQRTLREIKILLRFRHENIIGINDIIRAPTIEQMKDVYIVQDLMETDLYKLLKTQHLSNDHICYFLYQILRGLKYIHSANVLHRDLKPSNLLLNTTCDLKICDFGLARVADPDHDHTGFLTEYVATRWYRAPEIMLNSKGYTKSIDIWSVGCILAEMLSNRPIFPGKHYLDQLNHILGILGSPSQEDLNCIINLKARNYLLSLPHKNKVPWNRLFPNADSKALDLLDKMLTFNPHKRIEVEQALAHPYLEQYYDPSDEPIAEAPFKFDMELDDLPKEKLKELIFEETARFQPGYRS
Sequence of ERK2 (P28482 whole entry, species assumed): as the sequence (P28482 whole entry) above

Broadly, the IC50 is the midpoint of a concentration-inhibition curve. In the case of `C[C@@H]1CN(c2cnc(N)c(-c3ccc(C(=O)N[C@H](CO)c4ccccc4)cc3)c2)C[C@H](C)O1` [Example 97, 4-(2-amino-5-((2S,6R)-2,6-dimethylmorpholino)pyridin-3-yl)-N-((S)-2-hydroxy-1-phenylethyl)benzamide], the IC50 on activated ERK2 was 0.233 µM; against ERK2, 0.11 µM.
In the same order, the values of `Nc1ncc(C2CCOCC2)nc1-c1ccc(C(=O)NCc2ccccc2)c(F)c1` [Example 324, 4-(3-amino-6-(tetrahydro-2H-pyran-4-yl)pyrazin-2-yl)-N-benzyl-2-fluorobenzamide] are 0.00683 µM and 0.00617 µM.
Regarding `Nc1ncc(C2CCOCC2)nc1-c1ccc(C(=O)NC[C@@H](O)c2ccccc2)c(F)c1` [Example 333, (S)-4-(3-amino-6-(tetrahydro-2H-pyran-4-yl)pyrazin-2-yl)-2-fluoro-N-(2-hydroxy-2-phenylethyl) benzamide], the IC50 worked out at 0.0346 µM at activated ERK2 and 0.0338 µM at ERK2.
In the same order, the values of `Cc1cccc(CNC(=O)c2ccc(-c3nc(C4CCOCC4)cnc3N)cc2F)n1` [Example 334, 4-(3-amino-6-(tetrahydro-2H-pyran-4-yl)pyrazin-2-yl)-2-fluoro-N-((6-methylpyridin-2-yl)methyl) benzamide] are 0.0252 µM and 0.0194 µM.

These data come from patent US9242996B2 (Novartis AG, priority 2013, dated 2016).
